{"source": "patent US10463641B2", "about": "“Method for using small molecule compounds to induce human tumor cells to be directly reprogrammed into non-oncogenic cells” (Transcend Cytotherapy Co., Ltd, priority 2015, dated 2019)", "origin": "cited, not measured here", "key": {"GSK-3β": {"target": "GSK-3β (Homo sapiens, UniProt P49841)", "sequence (P49841 whole entry)": "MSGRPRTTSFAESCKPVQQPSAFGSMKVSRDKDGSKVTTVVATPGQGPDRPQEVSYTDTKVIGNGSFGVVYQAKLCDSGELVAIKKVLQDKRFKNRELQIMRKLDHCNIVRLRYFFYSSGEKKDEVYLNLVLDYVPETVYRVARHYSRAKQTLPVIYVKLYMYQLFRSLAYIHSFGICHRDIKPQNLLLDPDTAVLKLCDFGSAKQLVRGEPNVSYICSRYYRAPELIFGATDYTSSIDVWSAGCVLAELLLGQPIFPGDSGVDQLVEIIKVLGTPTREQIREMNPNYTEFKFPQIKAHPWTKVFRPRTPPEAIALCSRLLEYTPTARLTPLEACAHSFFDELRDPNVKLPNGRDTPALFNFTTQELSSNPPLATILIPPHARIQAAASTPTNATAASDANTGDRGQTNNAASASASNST", "details": "vs CDC2, ERK2 and other kinases"}, "ALK2": {"target": "ALK2 (Homo sapiens, UniProt Q04771)", "sequence (Q04771 21-509)": "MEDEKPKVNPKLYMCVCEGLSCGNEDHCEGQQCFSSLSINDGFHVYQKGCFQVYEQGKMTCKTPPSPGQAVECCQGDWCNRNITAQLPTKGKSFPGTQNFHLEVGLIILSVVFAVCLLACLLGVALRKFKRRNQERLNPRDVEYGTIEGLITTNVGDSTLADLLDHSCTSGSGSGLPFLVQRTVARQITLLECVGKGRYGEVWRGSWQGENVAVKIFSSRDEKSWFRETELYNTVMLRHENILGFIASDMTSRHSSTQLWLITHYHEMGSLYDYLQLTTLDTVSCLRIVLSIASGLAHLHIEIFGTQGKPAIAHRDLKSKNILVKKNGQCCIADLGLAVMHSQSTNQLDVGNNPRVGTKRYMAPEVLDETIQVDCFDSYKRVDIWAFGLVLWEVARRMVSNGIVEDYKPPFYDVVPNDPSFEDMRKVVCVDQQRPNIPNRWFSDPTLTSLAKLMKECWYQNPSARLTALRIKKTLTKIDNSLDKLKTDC", "details": "DMH1"}, "[1]": {"system": "AMPK, ALK5, KDR (VEGFR-2) and PDGFR"}, "[2]": {"system": "TGF-β type II receptor and activin type II receptor"}, "BMP type II receptor": {"target": "T1, BMP type II receptor (Homo sapiens, UniProt Q13873)", "T1 sequence (Q13873 27-1038)": "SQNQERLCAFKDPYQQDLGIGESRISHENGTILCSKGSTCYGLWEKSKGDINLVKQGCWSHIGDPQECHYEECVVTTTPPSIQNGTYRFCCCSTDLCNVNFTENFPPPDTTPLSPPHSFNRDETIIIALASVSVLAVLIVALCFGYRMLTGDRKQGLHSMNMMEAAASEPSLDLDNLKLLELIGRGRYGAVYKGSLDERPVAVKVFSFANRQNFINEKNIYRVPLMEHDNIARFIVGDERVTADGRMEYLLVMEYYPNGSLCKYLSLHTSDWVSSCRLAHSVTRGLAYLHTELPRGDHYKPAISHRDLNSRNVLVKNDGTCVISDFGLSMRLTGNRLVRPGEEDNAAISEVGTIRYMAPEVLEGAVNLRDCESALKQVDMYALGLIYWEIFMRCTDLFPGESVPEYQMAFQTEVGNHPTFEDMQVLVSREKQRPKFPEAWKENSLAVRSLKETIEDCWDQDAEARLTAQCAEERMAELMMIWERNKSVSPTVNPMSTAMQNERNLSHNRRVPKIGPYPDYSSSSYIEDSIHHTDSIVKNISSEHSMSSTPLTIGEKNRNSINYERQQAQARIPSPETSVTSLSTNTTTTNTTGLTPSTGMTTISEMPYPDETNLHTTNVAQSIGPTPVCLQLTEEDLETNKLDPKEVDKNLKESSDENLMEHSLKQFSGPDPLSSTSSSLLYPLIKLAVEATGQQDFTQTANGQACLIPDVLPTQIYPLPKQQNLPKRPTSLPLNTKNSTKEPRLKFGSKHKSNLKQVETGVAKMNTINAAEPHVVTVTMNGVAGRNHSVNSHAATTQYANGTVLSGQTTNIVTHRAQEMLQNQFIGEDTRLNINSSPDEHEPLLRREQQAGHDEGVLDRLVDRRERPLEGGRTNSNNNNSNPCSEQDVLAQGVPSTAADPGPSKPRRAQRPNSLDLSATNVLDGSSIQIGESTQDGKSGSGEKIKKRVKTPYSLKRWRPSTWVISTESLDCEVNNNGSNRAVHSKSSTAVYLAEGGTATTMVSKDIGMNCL"}, "BMP type I receptor ALK3": {"target": "BMP type I receptor ALK3", "details": "C2C12 cells; read-out: IC50, transcription activity of BMP type I receptor ALK3"}, "ALK1": {"target": "ALK1 (Homo sapiens, UniProt P37023)", "sequence (P37023 22-503, species assumed)": "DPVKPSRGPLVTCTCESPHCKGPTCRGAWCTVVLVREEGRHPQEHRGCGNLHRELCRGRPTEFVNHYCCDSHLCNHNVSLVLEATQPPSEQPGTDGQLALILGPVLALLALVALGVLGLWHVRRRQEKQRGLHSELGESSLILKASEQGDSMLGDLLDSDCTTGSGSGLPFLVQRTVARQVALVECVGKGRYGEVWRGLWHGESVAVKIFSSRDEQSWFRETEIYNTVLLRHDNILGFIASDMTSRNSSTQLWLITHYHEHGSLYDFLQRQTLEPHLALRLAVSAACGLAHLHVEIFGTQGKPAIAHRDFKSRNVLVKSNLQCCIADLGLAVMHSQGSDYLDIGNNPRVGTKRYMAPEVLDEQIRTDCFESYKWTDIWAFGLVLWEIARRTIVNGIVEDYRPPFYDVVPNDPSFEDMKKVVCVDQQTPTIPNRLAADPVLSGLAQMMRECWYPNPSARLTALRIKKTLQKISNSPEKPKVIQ"}, "ALK6": {"target": "ALK6 (Homo sapiens, UniProt O00238)", "sequence (O00238 14-502)": "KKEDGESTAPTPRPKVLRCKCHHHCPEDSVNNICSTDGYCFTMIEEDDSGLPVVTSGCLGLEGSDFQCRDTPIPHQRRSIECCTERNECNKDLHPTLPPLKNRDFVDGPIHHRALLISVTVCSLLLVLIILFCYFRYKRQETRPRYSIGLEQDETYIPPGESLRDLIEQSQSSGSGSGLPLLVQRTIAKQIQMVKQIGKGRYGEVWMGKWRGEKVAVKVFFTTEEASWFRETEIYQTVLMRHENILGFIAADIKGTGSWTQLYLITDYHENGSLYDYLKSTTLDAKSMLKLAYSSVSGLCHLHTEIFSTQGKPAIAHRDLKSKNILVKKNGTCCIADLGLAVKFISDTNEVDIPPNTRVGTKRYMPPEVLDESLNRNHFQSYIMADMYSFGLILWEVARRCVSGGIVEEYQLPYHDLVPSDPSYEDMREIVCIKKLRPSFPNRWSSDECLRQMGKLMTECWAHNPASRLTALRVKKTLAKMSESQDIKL"}, "ALK7": {"target": "T2, ALK7 (Homo sapiens, UniProt Q8NER5)", "T2 sequence (Q8NER5 21-493)": "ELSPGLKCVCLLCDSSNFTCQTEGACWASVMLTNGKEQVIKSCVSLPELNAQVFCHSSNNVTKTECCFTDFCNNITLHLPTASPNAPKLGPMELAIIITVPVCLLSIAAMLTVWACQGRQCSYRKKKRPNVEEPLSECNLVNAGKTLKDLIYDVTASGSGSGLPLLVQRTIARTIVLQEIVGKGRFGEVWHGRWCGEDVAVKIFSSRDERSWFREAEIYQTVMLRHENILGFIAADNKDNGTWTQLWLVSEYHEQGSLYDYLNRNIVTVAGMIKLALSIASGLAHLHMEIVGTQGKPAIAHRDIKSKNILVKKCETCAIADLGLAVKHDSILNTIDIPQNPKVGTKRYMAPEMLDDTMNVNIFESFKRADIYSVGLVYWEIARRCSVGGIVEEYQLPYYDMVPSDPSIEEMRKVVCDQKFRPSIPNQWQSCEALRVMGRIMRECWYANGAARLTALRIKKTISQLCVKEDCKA", "details": "qualitative"}, "ALK4": {"target": "T3, ALK4 (Homo sapiens, UniProt P36896)", "T3 sequence (P36896 24-505)": "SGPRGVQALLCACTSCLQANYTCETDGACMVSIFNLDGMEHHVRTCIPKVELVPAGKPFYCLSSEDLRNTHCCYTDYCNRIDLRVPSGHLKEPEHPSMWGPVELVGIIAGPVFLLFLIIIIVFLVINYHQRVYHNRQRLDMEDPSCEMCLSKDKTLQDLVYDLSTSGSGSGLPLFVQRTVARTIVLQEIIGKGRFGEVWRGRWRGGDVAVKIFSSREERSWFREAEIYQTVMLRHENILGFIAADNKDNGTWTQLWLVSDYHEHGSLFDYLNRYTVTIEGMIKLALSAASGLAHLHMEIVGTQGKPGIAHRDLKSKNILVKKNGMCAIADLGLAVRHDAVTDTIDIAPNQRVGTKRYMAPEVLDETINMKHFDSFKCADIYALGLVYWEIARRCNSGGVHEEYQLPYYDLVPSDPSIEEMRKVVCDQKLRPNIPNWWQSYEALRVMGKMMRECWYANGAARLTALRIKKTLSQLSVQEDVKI", "details": "ALK4 vs ALK5"}, "ALK5": {"target": "ALK5 (Homo sapiens, UniProt P36897)", "sequence (P36897 34-503, species assumed)": "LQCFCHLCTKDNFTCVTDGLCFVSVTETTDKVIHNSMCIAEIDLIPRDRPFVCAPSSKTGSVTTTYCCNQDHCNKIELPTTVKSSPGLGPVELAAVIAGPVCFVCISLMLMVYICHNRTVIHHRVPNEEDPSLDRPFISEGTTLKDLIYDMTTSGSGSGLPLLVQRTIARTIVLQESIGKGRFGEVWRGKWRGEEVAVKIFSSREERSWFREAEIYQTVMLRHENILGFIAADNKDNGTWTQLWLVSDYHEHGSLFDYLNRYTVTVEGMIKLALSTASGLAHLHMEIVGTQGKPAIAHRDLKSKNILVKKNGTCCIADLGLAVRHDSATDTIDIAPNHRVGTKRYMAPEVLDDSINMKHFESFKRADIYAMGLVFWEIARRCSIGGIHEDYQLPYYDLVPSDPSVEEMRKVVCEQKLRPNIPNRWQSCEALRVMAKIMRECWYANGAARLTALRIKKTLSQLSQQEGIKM", "details": "vs TGF-βRII"}}, "data": [{"compound": "Cc1cnc(-c2cnc(NCCNc3ccc(C#N)cn3)nc2-c2ccc(Cl)cc2Cl)[nH]1", "note": "[CHIR-99021]", "values": [{"measurement": "inhibition of GSK-3 stronger than inhibition on CDC2, ERK2 and other kinases", "setting": "GSK-3β", "result": 500, "unit": "fold"}]}, {"compound": "CC(C)Oc1ccc(-c2cnc3c(-c4ccnc5ccccc45)cnn3c2)cc1", "note": "[DMH1]", "values": [{"measurement": "IC50", "setting": "ALK2", "result": 108, "unit": "nM"}, {"measurement": "inhibiting activity on AMPK, ALK5, KDR (VEGFR-2) and PDGFR", "setting": "[1]", "result": "no inhibiting activity"}]}, {"compound": "O=C(NC1CCOCC1)c1ccc(-c2cc(-c3c[nH]nc3-c3ccccn3)ccn2)cc1", "note": "[GW788388]", "values": [{"measurement": "inhibition of TGF-β type II receptor and activin type II receptor", "setting": "[2]", "result": "also inhibiting"}, {"measurement": "inhibition of BMP type II receptor", "setting": "BMP type II receptor", "result": "not BMP type II receptor"}]}, {"compound": "c1ccc2c(-c3cnn4cc(-c5ccc(N6CCNCC6)cc5)cnc34)ccnc2c1", "note": "[LDN-193189]", "values": [{"measurement": "selectivity on BMP higher than on TGF-β", "setting": "BMP type I receptor ALK2; BMP vs TGF-β", "result": 200, "unit": "fold"}, {"measurement": "IC50", "setting": "BMP type I receptor ALK2; C2C12 cells, read-out: IC50, transcription activity of BMP type I receptor ALK2", "result": 5, "unit": "nM"}, {"measurement": "IC50", "setting": "BMP type I receptor ALK3", "result": 30, "unit": "nM"}]}, {"compound": "COc1cc(-c2cc(-c3cccc(O)c3)cnc2N)cc(OC)c1OC", "note": "[Medium K02288]", "values": [{"measurement": "IC50", "setting": "ALK1", "result": 1.8, "unit": "nM"}, {"measurement": "IC50", "setting": "ALK6", "result": 6.4, "unit": "nM"}, {"measurement": "inhibiting activity on other ALK5 (3, 4, 5) and ActRIIa", "setting": "and ActRIIa", "result": "slight inhibiting activity"}]}, {"compound": "Cc1cccc(-c2[nH]c(C(C)(C)C)nc2-c2ccc3c(c2)OCO3)n1", "note": "[SB505124]", "values": [{"measurement": "inhibition of ALK7", "setting": "ALK7", "result": "also inhibiting ALK7"}, {"measurement": "inhibition of ALK1, 2, 3 or 6", "setting": "ALK1, 2, 3 or 6", "result": "not ALK1, 2, 3 or 6"}]}, {"compound": "Cc1cccc(-c2[nH]c(C(C)(C)C)nc2-c2ccc3nccnc3c2)n1", "note": "[SB525334]", "values": [{"measurement": "effect on ALK4 lower than on ALK5", "setting": "ALK4", "result": 4, "unit": "fold"}, {"measurement": "activity to ALK2, 3 and 6", "setting": "ALK2, 3 and 6", "result": "no activity"}]}, {"compound": "SD-208", "values": [{"measurement": "selectivity for TGF-βRI (ALK5) higher than on TGF-βRII", "setting": "ALK5", "result": "more than 100 fold"}]}]}
